Results from patent US20220339187A1, “ANTIMICROBIAL PEPTIDE-SELENIUM NANOPARTICLES” (The University of Melbourne, priority 2019, published 2022).

What was measured:
K. pneumoniae ATCC 13883 = test: Adenosine triphosphate (ATP) test (BacTiter-Glo); type: cell-based, Klebsiella pneumoniae; details: 1 h at 37° C.
Description: The bacterial strains methicillin-sensitive S. aureus ATCC 29213, E. faecalis ATCC 29212, E. coli ATCC 25922 and K. pneumoniae ATCC 13883 were cultured in MHB at 37° C. 50 μL of Se NPs, Se NP-ε-PL or pure ε-PL in PBS solution was added into each well of 96-well microplates. 50 μL MHB with 2.5×10^6 cells/mL bacteria was then added into each well. After 1h incubation at 37° C., the 96-well microplates were transferred to room temperature for a further 30 min incubation period. 100 μL of BacTiter-Glo™ reagent (Promega, Australia) was added into each well, then mixed on an orbital shaker and incubated for 5 min. The luminescence was recorded using a microplate reader (PerkinElmer 1420 Multilabel Counter VICTOR3).
A standard curve was generated by adopting the following steps. 10-fold serial dilutions of ATP from 1 μM to 10 pM in 100 μL MHB were prepared. 100 μL of BacTiter-Glo™ reagent was added into each well, then mixed on an orbital shaker and incubated for 1 min. The luminescence was recorded using a microplate reader (PerkinElmer 1420 Multilabel Counter VICTOR3).

Gram-negative bacteria = test: Colony forming unit assay (bactericidal effect); type: cell-based
Description: (§1) For the CFU measuring assay, 50 μL of different concentrations of Se NPs, Se NP-ε-PL or pure ε-PL in PBS solution was added into each well of 96-well microplates, then 50 μL MHB with 2.5×10^6 cells/mL bacteria were added into each well. After incubating the microplate at 37° C. for 90 min, the bacterial solutions were diluted 10^−1, 10^−2, 10^−3 and 10^−4 times, then 10 μL of each dilution was transferred onto agar plates with MHB. The agar plates were incubated overnight, before the bacterial colony forming units were observed and measured.

E. faecalis ATCC 29212 = test: Membrane potential change test (BacLight, DiOC2(3)); type: cell-based, Enterococcus faecalis; details: 6.25 or 12.5 μg/ml
Description: Membrane potential change was measured using a BacLight Bacterial Membrane Potential Kit (Invitrogen). The bacterial strain methicillin-sensitive S. aureus (MSSA) ATCC 29213, E. faecalis ATCC 29212, E. coli ATCC 25922 were cultured in MHB at 37° C. 50 μL of different concentrations of Se NPs, Se NP-ε-PL or pure ε-PL in PBS solution was added into each well of 96-well microplates. 50 μL MHB with 2.5×10^6 cells/mL bacteria was then added into each well. 50 μL MHB with 2.5×10^6 cells/mL bacteria was added to 50 μL PBS to act as untreated control. Carbonyl cyanide 3-chlorophenylhydrazone (CCCP) was added to untreated control at a final concentration of 5 μM to act as fully depolarized control. 3,3′-Diethyloxacarbocyanine Iodide (DiOC2(3)) was added to all wells at a final concentration of […]. […] The untreated (polarized) and CCCP-treated (fully depolarized) controls were used to determine the percentage of depolarized cells. Two independent experiments were done for this test, and two technical replicates were adopted for each independent experiment.

[1] = test system: methicillin-resistant Staphylococcus aureus (MRSA) ATCC 43300; test: CFU measuring assay / MBC calculation; type: cell-based; details: 90 min at 37° C., linear regression, mean ± s.d.
Description: as §1
(§2) Concentration-killing curves were plotted with CFUs/mL as a function of antibacterial agent concentration, and linear regression analysis was used to determine the lowest concentration (MBC) at which the CFU/mL becomes zero.

[2] = test system: Pseudomonas aeruginosa (P. aeruginosa) strain PAO1-LAC ATCC 47085; test: CFU measuring assay / MBC calculation; type: cell-based; details: 90 min at 37° C., linear regression, mean ± s.d.
Description: as §1, §2

[3] = test system: methicillin-sensitive Staphylococcus aureus (S. aureus) ATCC 29213; test: CFU measuring assay / MBC calculation; type: cell-based; details: 90 min at 37° C., linear regression, mean ± s.d.
Description: as §1, §2

[4] = test system: Enterococcus faecalis (E. faecalis) ATCC 29212; test: CFU measuring assay / MBC calculation; type: cell-based; details: 90 min at 37° C., linear regression, mean ± s.d.
Description: as §1, §2

[5] = test system: Acinetobacter baumannii (A. baumannii) 2208 ATCC19606; test: CFU measuring assay / MBC calculation; type: cell-based; details: 90 min at 37° C., linear regression, mean ± s.d.
Description: as §1, §2

[6] = test system: Escherichia coli (E. coli) ATCC 25922; test: CFU measuring assay / MBC calculation; type: cell-based; details: 90 min at 37° C., linear regression, mean ± s.d.
Description: as §1, §2

[7] = test system: Klebsiella pneumoniae (K. pneumoniae) ATCC 13883; test: CFU measuring assay / MBC calculation; type: cell-based; details: 90 min at 37° C., linear regression, mean ± s.d.
Description: as §1, §2

[8] = test system: multidrug-resistant K. pneumoniae (MDR); test: CFU measuring assay / MBC calculation; type: cell-based, Klebsiella pneumoniae; details: 90 min at 37° C., linear regression, mean ± s.d.
Description: as §1, §2

[9] = test system: human dermal fibroblast cells (HDF); test: Cell Counting Kit-8 (CCK-8) cytotoxicity assay; type: cell-based; details: all tested concentrations (1-50 μg/mL), 24 h
Description: Two methods were adopted to test the cytotoxicity of Se NP-ε-PL, namely the Cell Counting Kit-8 (CCK-8) assay and Lactate Dehydrogenase (LDH) assay.
Cytotoxicity of Se NPs, Se NP-ε-PL and pure ε-PL was tested using human dermal fibroblast cells (HDF). HDF were cultured in Dulbecco's modified Eagle's medium (DMEM) with 10% foetal bovine serum (FBS), 100 U·mL^−1 penicillin and 100 μg·mL^−1 streptomycin at 37° C. in a humidified atmosphere of 5% CO2. For the CCK-8 tests, filter sterilised Se NPs, Se NP-ε-PL and pure ε-PL in PBS suspensions were diluted in PBS to concentrations of 20, 50, 100, 200, 500 and 1000 μg/mL and 5% (v/v) of these diluted solutions were added to DMEM to give final concentrations of Se NPs of 1, 2.5, 5, 10, 25 and 50 μg/mL The control groups involved DMEM as the negative control and DMEM with 10% dimethyl sulfoxide (DMSO) as the positive control, according to ISO 10993-12 standard. […] 100 μL medium from each well was then transferred to new 96-well plates and the absorbance of each well was tested using a microplate reader (M200 PRO, Tecan) at a wavelength of 450 nm. The cell viability (X) of each experimental group was calculated based on 5 samples according the following formula: […]
where OD1 represents the mean absorbance of experimental groups and the positive control group and OD2 represents the mean absorbance of the negative control group.

With ε-poly-L-lysine [ε-PL] the ATP depletion (K. pneumoniae ATCC 13883) was “higher ATP depletion effect than Se NPs”, the “bactericidal effect (CFU)” value (Gram-negative bacteria) was “high bactericidal efficacy” and the “depolarisation of cell membrane” value (E. faecalis ATCC 29212) was “depolarized cell membranes”. For the same substance, the MBC [1] was 149 ± 37 µg/mL, the MBC [2] was 25.0 ± 0.1 µg/mL and the MBC [3] was 50.6 ± 3.5 µg/mL. For the same substance, the MBC [4] was 134 ± 10 µg/mL, the MBC [5] was 50.0 ± 0.2 µg/mL and the MBC [6] was 24.3 ± 1.2 µg/mL. The MBC [7] was 12.9 ± 0.4 µg/mL, the MBC [8] was 24.7 ± 0.5 µg/mL and the “toxicity to HDF cells (cell viability, CCK-8)” value [9] was “no significant toxicity”.
